“And” between values parts separate entries of the source, which are not always exact repeats. Identical values can stand only once.
How the values were obtained:
[1] = biological target: T1, GABAB receptors (Rattus norvegicus, UniProt Q9Z0U4); assay: GABAB receptor activation (IKIR) in CGN; type: cell-based; settings: 10 μM MG in the presence of SR
T1 construct: endogenous in cells; host or cells: primary rat cerebellar granule neurons
Description: (§1) Potassium currents: Voltage-gated potassium channel currents were evoked using a previously reported protocol with modifications (Plant 2006). The whole voltage-gated potassium current, IK+, and the delayed rectifier current, IDR were isolated with two voltage protocols. First, IK+ was evoked by 250 ms test pulses to between −80 and 90 mV from −80 mV following a 250 ms pre-pulse to −140 mV. Then, the protocol was repeated using a −50 mV pre-pulse to inactivate IK+ and isolate IDR. The inactivating component of the current, IKA, was isolated by subtracting IDR from IK+ recorded in the same cells. The standing outward potassium leak current, IKso, and the inwardly rectifying potassium current, IKIR, were studied as previously reported with modifications (Plant 2002). Cells were held at −20 mV, and the membrane potential was ramped to −120 mV over a period of 100 ms before returning to −20 mV. Ramp hyperpolarizations were repeated every 20 seconds.

[2] = tested on: potassium currents; assay: Potassium currents in CGN; type: cell-based, rat; settings: 10 μM MG
Description: as §1

[3] = tested on: anxiety-like behavior and locomotion in mice; assay: Open field (OF) test; type: in vivo, mouse
Description: OF test: Mice were placed into the center of the OF, and activity was monitored for five to ten minutes. The apparatus was illuminated to approximately 40 lux. Data were collected and processed using the manufacturer's software (AccuScan Instruments).
OF test: Ten minutes post-injection, mice were placed into the center of the OF. The apparatus was illuminated to approximately 40 lux. Behavior was measured as described above.
OF test replication studies: Ten to twenty minutes post-injection, mice were tested in the OF for five to ten minutes. In some experiments, behavior was scored as described above. In other experiments, mice were tested in the OF, and behavior was automatically scored by the Noldus Ethovision System. For mice tested in the Noldus system, the apparatus was illuminated to approximately 1,000 lux.
Chronic MG administration: For five days, mice were injected twice daily with vehicle or MG (4 mg/kg). Twelve hours after the final injection, mice were tested in the OF as described above.
Pure MG: Pure MG was obtained from Dr. John Termini at the City of Hope, Duarte, Calif. It was administered at the indicated doses by i.p. injection. Mice were tested as described above.
OF test: Two hours post-injection, mice were tested in the OF test as described above. The center size was 10×10 cm. The apparatus was illuminated to approximately 40 lux.

[4] = tested on: anxiety-like behavior; settings: intracerebroventricular MG for six days (Hambsch 2010); cited from earlier work
[5] = tested on: motor coordination in mice; assay: Balance beam test; type: in vivo, mouse; settings: 300 mg/kg i.p., B6 mice
Description: The balance beam was 97 cm×9.5 mm and elevated to 46 cm. Mice were tested on the balance beam, and missteps were counted.
Balance beam: The balance beam test was performed as described above. Ten minutes post-injection, mice were tested on the balance beam, and missteps were recorded.

[6] = tested on: pilocarpine-induced seizures; assay: Pilocarpine-induced seizures; type: in vivo, mouse
Description: Drug administration: All experiments with MG utilized crude MG obtained from Sigma-Aldrich. For pre-treatment, MG (50 or 200 mg/kg) or vehicle (0.9% saline) was administered by i.p. injection 10 minutes before the seizure-inducing agent. For treatment after seizure onset, MG (200 mg/kg) or vehicle (0.9% saline) was administered by i.p. injection ten minutes after seizure onset. For GLO1 inhibition, BrBzGCp2 (50 mg/kg) or vehicle (8% DMSO and 18% Tween-80) was administered by i.p. injection two hours before seizure induction.
Seizure induction: For picrotoxin-induced seizures, 5 mg/kg of picrotoxin in 0.9% saline was administered by i.p. injection. Seizures were scored for one hour after picrotoxin administration. For pilocarpine-induced seizures, mice were pre-treated with atropine (5 mg/kg in 0.9% saline) by i.p. injection in order to reduce the peripheral effects of pilocarpine. Thirty minutes after atropine administration, pilocarpine was administered by i.p. injection. B6 mice were treated with 250 mg/kg pilocarpine in 0.9% saline, and FVB mice (WT and Tg) were treated with 300 mg/kg pilocarpine in 0.9% saline. Seizures were scored for 90 minutes after pilocarpine administration.
Pilocarpine-induced seizures were scored as previously reported (Winawer 2011):
Stage 1: Immobility/Lying Low
Stage 2: Partial (limbic) seizures. Non-continuous twitching/tremor/shaking of tail/head/body/limbs, forelimb and/or tail extension, rigid posture, repetitive movements, head bobbing
Stage 3: Partial status epilepticus. Continuous tremor/clonic seizures of body and tail while retaining posture
Stage 4: Generalized seizures. Rearing/hyperexcitability/running/falling, tonic extension/clonic seizures with loss of posture
Stage 5: Generalized status epilepticus (continuous stage 4 seizures) resulting in death

[7] = tested on: glutamate receptors; assay: Glutamatergic currents in CGN; type: cell-based, rat; settings: 10 μM MG
Description: Ligand-gated currents: Ligand-gated currents were studied in voltage-clamp mode by application of reagents to cells held at −50 mV. GABAergic and glycinergic currents were activated by application of GABA and glycine and antagonized by application of SR and strychnine, respectively (Kaneda 1995). Glutamatergic currents were activated by 1-glutamate and antagonized by CNQX and AP-5 (Wyllie 1994).

[8] = MG 50 mg/kg i.p., male WT B6 mice, 10 min post-injection
[9] = MG 50 and 200 mg/kg pre-treatment, pilocarpine 250 mg/kg, B6 mice

T1 sequence (Q9Z0U4 17-960 limits assumed): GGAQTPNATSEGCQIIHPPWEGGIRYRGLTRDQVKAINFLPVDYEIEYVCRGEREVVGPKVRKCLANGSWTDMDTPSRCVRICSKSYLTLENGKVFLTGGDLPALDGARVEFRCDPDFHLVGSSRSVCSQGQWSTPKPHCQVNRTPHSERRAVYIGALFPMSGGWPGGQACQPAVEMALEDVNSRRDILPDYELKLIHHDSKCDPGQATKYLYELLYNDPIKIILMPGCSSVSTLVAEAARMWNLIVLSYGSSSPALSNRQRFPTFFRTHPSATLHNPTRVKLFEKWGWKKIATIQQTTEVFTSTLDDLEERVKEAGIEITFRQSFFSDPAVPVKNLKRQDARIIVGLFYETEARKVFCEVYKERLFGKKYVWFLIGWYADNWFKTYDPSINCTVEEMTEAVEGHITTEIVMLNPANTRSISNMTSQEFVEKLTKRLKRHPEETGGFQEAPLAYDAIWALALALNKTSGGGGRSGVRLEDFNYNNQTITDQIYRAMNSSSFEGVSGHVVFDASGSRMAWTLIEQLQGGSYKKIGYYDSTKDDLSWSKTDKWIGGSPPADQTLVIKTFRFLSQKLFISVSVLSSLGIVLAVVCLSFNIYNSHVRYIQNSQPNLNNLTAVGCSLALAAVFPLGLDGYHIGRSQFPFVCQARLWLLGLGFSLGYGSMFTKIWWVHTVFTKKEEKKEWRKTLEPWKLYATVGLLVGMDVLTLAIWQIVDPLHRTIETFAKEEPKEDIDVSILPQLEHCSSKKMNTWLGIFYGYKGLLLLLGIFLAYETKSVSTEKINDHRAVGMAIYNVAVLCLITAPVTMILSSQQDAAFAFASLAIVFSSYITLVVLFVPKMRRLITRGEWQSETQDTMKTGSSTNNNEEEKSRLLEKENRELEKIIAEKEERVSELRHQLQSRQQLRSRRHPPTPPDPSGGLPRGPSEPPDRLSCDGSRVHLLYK
T1 sequence (O88871 41-940 partner): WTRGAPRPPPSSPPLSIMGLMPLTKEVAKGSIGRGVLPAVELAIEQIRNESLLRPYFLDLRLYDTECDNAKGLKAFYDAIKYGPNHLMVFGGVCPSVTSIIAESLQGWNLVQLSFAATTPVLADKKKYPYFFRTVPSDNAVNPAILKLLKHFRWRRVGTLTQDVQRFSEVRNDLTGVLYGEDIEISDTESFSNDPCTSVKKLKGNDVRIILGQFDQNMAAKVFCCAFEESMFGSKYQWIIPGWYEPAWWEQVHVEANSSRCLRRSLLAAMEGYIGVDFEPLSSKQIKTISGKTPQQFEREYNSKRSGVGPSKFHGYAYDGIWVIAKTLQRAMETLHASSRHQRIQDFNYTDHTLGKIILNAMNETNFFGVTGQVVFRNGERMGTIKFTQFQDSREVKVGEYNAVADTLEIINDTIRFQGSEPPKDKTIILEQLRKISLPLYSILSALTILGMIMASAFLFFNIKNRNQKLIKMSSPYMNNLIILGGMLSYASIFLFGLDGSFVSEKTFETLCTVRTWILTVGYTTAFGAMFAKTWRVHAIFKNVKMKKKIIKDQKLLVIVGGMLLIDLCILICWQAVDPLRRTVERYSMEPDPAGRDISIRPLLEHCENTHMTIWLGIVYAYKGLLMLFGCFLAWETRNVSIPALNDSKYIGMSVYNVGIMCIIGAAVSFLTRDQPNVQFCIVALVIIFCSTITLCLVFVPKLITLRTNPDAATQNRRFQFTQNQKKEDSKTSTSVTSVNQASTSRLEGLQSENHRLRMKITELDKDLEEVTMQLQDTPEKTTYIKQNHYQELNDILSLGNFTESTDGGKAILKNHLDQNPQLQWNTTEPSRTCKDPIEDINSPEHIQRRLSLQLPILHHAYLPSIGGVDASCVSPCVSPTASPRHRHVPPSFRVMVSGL

SMILES: CC(=O)C=O [MG, methylglyoxal]
- activation of GABAB receptors [1]: did not activate GABAB receptors
- effect on potassium currents [2]: did not affect
- anxiety-like behavior in the OF after chronic treatment ([3]; MG 4 mg/kg i.p. twice daily for five days, tested on the sixth day): significant reduction in anxiety-like behavior
- center time in the OF ([3]; MG 50 mg/kg i.p., CD-1 mice): increased center time in the OF
- distance traveled in the OF ([3]; MG 50 mg/kg i.p., CD-1 mice): without affecting distance traveled
- anxiety-like behavior in the OF in mice with the Glo1 duplication ([3]; MG 50 mg/kg i.p., CD-1 mice with Glo1 duplication): reduced anxiety-like behavior in mice with the Glo1 duplication
- distance traveled in the OF [3, 8]: without affecting distance traveled
- increase in center time in the OF [3, 8]: approximately 30%
- persistence of anxiolytic effect after injection ([3]; MG 50 mg/kg i.p., separate cohorts tested at different intervals): ≤ 20 min
- Cohen's d, meta-analysis of anxiolytic effect in the OF test ([3]; MG 50 mg/kg i.p., seven experiments, total n = 181, fixed-effect model): 0.78 and 0.7798
- locomotion in the OF ([3]; MG 100 mg/kg, WT B6 mice): decreased locomotion in the OF
- anxiety-like behavior in the EPM [4]: reduced anxiety-like behavior in the EPM
- footslips on the balance beam (ataxia) [5]: made more footslips than vehicle-treated mice
- seizure duration, treatment of ongoing seizures ([6]; MG 200 mg/kg given 10 min after pilocarpine 250 mg/kg): reduced seizure duration in mice undergoing pilocarpine-induced seizures
- highest seizure stage reached [6, 9]: reduced seizure stage
- latency to reach stage 3 (seizure onset) [6, 9]: dose-dependently delayed seizure onset
- time spent in stage 3 (seizure duration) [6, 9]: reduced seizure duration
- activation of glutamate receptors [7]: did not activate

Source: patent publication US11235020B2, “Methods and compositions for inhibiting glyoxalase 1 (GLO1)” (priority 2013, dated 2022)
